How the values were obtained:
[1] = tested on: object recognition function in mice; assay: Novel object location task (NOL), memory retrieval task; assay type: in vivo, Male C57BL/6J mice; details: DSF diet (0.8 mg DSF per 1 g diet) for 3 weeks; p<0.05 (FIG. 8)
Experimental: To 1 g of an MF diet, 0.8 mg of DSF and 50 mg of sucrose or only 50 mg of sucrose (without DSF) were added to prepare a DSF diet or a control diet, respectively, as a solid diet. The novel object location task (NOL) was conducted to assess object recognition function in mice administered with any of the test drugs. The NOL is a test used to evaluate the ability to remember the location of an object (Dix, S. L. & Aggleton, J. P., Behav Brain Res: 1999 March; 99(2): 191-200). Mice were placed in a 33 cm square white box (open field: OF) and allowed to explore the white box freely for 10 minutes every day in the period of 3 days (acclimation). On Day 4, two objects with the same shape were placed in the OF apparatus, and the mice were allowed to learn the locations of the objects (FIG. 8; learning). On Day 5, one of the objects was relocated to a location that was different from the original location during the learning tasks, and the mice were allowed to explore the objects for 5 minutes, and the length of time spent exploring the objects was measured (FIG. 8; memory retrieval task). […] In the NOL memory retrieval task, the length of time spent exploring each object was measured to evaluate the effect of each test drug on the cognitive ability of the mice.

[2] = tested on: spatial learning ability in mice; assay: Morris water maze task (WM); assay type: in vivo, Male C57BL/6J mice; details: DSF diet for 4 weeks
Experimental: To 1 g of an MF diet, 0.8 mg of DSF and 50 mg of sucrose or only 50 mg of sucrose (without DSF) were added to prepare a DSF diet or a control diet, respectively, as a solid diet. Next, the Morris water maze task (WM) was conducted to assess spatial learning ability in mice administered with any of the test drugs. The WM is widely used for assessing spatial learning and memory in mice (Morris, R. G. M., Learning and Motivation: 1981, 12, 239-260). A WM apparatus was a circular pool of 120 cm in diameter, filled with white-colored water and equipped with a submerged platform (PF) on which a mouse was allowed to stand and rest. Mice were allowed to swim from a randomly selected starting point in the pool, and the distance spent swimming before reaching the hidden platform was measured (FIG. 9A). […] Thus, the spatial learning ability can be assessed based on the distance traveled to find the platform. […] The effect of a test drug on spatial memory formation was evaluated from the ratio of time spent exploring the area at each probe trial after the platform was removed from the original location. […] At the WM learning trials, the distance spent swimming before reaching the platform was measured every day to evaluate the effect of each test drug on the spatial learning of the mice. Moreover, the effect of each test drug on the spatial memory formation in the mice was evaluated at the probe trials.

[3] = tested on: anxiety-like behaviors in mice; assay: Elevated plus maze (EPM) test of exploration behavior
From the text: An elevated plus maze (EPM) apparatus (FIG. 1) was used to assess anxiety-like behaviors in mice administered with any of the test drugs. The EPM apparatus is a plus-shaped maze apparatus with open and closed arms and is used for assessment of anxiety-like behaviors of animals. Animals administered with a benzodiazepine (BZD) anxiolytic drug are known to increase the ratio of time spent in the open arm and the ratio of open arm entries. The EPM test is the most representative test available as a system for evaluating an anxiolytic drug.
Mice were acclimated to the testing laboratory for 60 minutes, and a prepared test drug was then administered to each mouse at a dose of 0.25 mL/20 g. After the elapse of a predetermined period of time from the administration of the drug, the EPM apparatus was used to quantify exploration behavior of the mouse for 5 minutes. The equations below were used to evaluate the effects of each test drug on exploration behavior in mice. Statistical analysis was performed with Dunnett's multiple comparison test, and a significant difference was considered at P<0.05. Time spent in open arm (%)−Time spent in open arm (sec)/{Time spent in open arm (sec)+Time spent in closed arm (sec)}×100 Open arm entry (%)−Open arm entries (times)/{Open arm entries (times)+Closed arm entries (times)}×100 Total arm entries (times)=Open arm entries (times)+Closed arm entries (times) 2.
Disulfiram was administered intraperitoneally to mice (n=8 per group) at a dose of 20, 40, or 80 mg/kg, and the mice were tested 30 minutes after the administration for their exploration behavior by using the EPM apparatus. As a positive control experiment, diazepam, a BZD anxiolytic drug, was administered subcutaneously to mice at a dose of 1.5 mg/kg (equivalent to the dose used clinically for humans), and the mice were similarly tested for their exploration behavior by using the EPM apparatus. A solution of 2% Tween 80, 10% DMSO, and 88% corn oil was administered intraperitoneally to mice in the solvent control group.
Disulfiram was administered to mice (n=8 per group) at a dose of 40 mg/kg, and the mice were tested 15, 30, 60, or 120 minutes after the administration for their exploration behavior by using the EPM apparatus.
Cyanamide was investigated for the presence of an anxiolytic-like effect. Cyanamide or disulfiram was administered to mice (n=6 per group) at a dose of 80 or 40 mg/kg, respectively, and the mice were tested 30 minutes after the administration for their exploration behavior by using the EPM apparatus.
The iron(III) complex of diethyldithiocarbamate (DDC) (Fe(DDC)3) as a disulfiram (DSF)-related compound was investigated for the presence of an anxiolytic-like effect. Each drug was administered intraperitoneally to mice in the Fe(DDC)3 dose group (n=5) and the DDC dose group (n=4) at a dose of 40 mg/kg. A solution of 2% Tween 80, 10% DMSO, and 88% corn oil was administered intraperitoneally to mice in the solvent control group (n=9). Thirty minutes after the administration, the elevated plus maze test was performed for 5 minutes.
The copper complex of DDC (Cu(DDC)2) as a DSF-related compound was investigated for the presence of an anxiolytic-like effect. Cu(DDC)2 was administered orally to mice (n=4) at a dose of 40 mg/kg. A solution of 2% Tween 80, 10% DMSO, and 88% corn oil was administered orally to mice in the solvent control group (n=4). Sixty minutes after the administration, the elevated plus maze test was performed for 5 minutes.

[4] = tested on: hyperemotional response and hyperactivity in mice; assay: Hyperemotional response and hyperactivity after chronic administration; assay type: in vivo, ICR mice; details: DSF diet freely for 3 months
Experimental: To 1 g of an MF diet, 0.8 mg of DSF and 50 mg of sucrose or only 50 mg of sucrose (without DSF) were added to prepare a DSF diet or a control diet, respectively, as a solid diet. ICR mice were allowed to eat the DSF diet (200 mg/day) freely for 3 months to assess hyperemotional response and hyperactivity. Hyperemotional response was evaluated in those mice according to the method of Kelly et al., (Kelly, J. P. et al., Pharmacol. Ther. Vol. 74, No. 3, pp. 299-316, 1997) by individually scoring (A) the response to an object placed in front of the nose, (B) the response to air blown thereon, or (C) the resistance to handling, based on the following criteria of emotional responses: • 0: no response; • 1: interest in the object, or only a slight movement, or easy to handle; • 2: protective or evasive actions against the object, or expression of surprise, or nervous but still easy to handle; • 3: aggressive actions such as biting, or clear expression of surprise, or nervous and difficult to handle; • 4: highly aggressive actions, or expression of surprise with jumping, or quite difficult to handle. The hyperactivity of each mouse was measured over a period of 30 seconds by counting the number of times the mouse crossed the lines that divided the floor of a cage to four areas.

[5] = tested on: mouse models of depression (SDS models); assay: Social interaction (SI) test after social defeat stress (SDS models); assay type: in vivo, C57BL/6J mice; details: DSF diet freely for 3 months, then SDS for 10 days; control group SI time significantly decreased (FIG. 11)
Experimental: To 1 g of an MF diet, 0.8 mg of DSF and 50 mg of sucrose or only 50 mg of sucrose (without DSF) were added to prepare a DSF diet or a control diet, respectively, as a solid diet. C57BL/6J mice were allowed to eat the DSF diet (200 mg/day) freely for 3 months and then exposed to social defeat stress (SDS) for 10 days to create mouse models of depression (SDS models) (Golden S. A. et al., Nat Protoc. Vol. 6, No. 8, pp. 1183-1191, 2011). The SDS models were created by placing a single C57BL/6J mouse in a home cage where a male ICR mouse had been housed for a long period of time and exposing the mouse to physical aggression by the ICR mouse. In this study, the stress exposure was applied for 10 minutes a day in a period of consecutive 10 days. Depressive-like symptoms were evaluated by the social interaction (SI) test (Golden S. A. et al., 2011, supra). An apparatus composed of an open field apparatus (45 cm×45 cm×30 cm) and a mesh cage (8 cm×6 cm×30 cm) placed on one side of the open field apparatus was used to perform the SI test, in which the time (SI time) spent by the C57BL/6J mouse approaching and making contact with the ICR mouse (Target) in the mesh cage during the measurement time (2.5 minutes) was compared with that in the absence of the ICR mouse (Non-target).

[6] = tested on: wild-type APP-transfected cells; details: in vitro, cultured cells; data of Patent Document 3; cited from earlier work
[7] = 40 mg/kg, time course 15-120 minutes
[8] = intraperitoneal 20, 40 or 80 mg/kg, 30 minutes after administration, dose-dependent, vs solvent control (FIG. 2)
[9] = 80 mg/kg, 30 minutes after administration (FIG. 5)
[10] = intraperitoneal 40 mg/kg, 30 minutes, two mice with no sedative effect (FIG. 6)
[11] = subcutaneous 1.5 mg/kg, positive control (FIG. 3)
[12] = oral 40 mg/kg, sixty minutes after administration (FIG. 7)

CCN(CC)C(=S)SSC(=S)N(CC)CC [disulfiram, tetraethylthiuram disulfide]
time spent exploring the relocated object vs the object remaining at the original location [1]: significantly longer
distance traveled to find the platform ([2]; Days 4 and 6, p<0.05 vs control diet (FIG. 9A)): shorter
time spent for exploring the platform area at the probe trial ([2]; probe trial on Day 5, p<0.05 vs control diet (FIG. 9B)): significantly longer
ratio of time spent in the open arm ([3]; 40 mg/kg, tested 15, 30, 60 or 120 minutes after administration, increased from 15 minutes (FIG. 4)): significantly increased
effect observed till (time after the administration) [3, 7]: 60 min
time of peak anxiolytic-like effect [3, 7]: 30 min
anxiolytic-like effect ([3]; disulfiram 40 mg/kg to 80 mg/kg i.p. compared with diazepam 1.5 mg/kg s.c.): comparable to that of diazepam
ratio of open arm entries [3, 8]: significantly increased
ratio of time spent in the open arm [3, 8]: significantly increased
hyperemotional response (score) ([4]; vs control diet group (FIG. 10A)): significant decreases
hyperactivity (line crossings in 30 seconds) ([4]; vs control diet group (FIG. 10B)): significant decreases
SI time in the presence of the Target vs Non-target [5]: any change in SI time was not observed
secretion of sAPPα [6]: promote secretion of sAPPα

N#CN [Cyanamide, cyanamide (H2 N—CN)]
anxiolytic-like effect [3, 9]: no anxiolytic-like effect
ratio of open arm entries [3, 9]: no significant effects
ratio of time spent in the open arm [3, 9]: no significant effects

CCN(CC)C(=S)[S-].CCN(CC)C(=S)[S-].CCN(CC)C(=S)[S-].[Fe+3] [Fe(DDC)3, diethyldithiocarbamic acid ferric salt]
anxiolytic-like effect ([3]; intraperitoneal 40 mg/kg, 30 minutes (FIG. 6)): confirmed to have an anxiolytic-like effect
sedative effect ([3]; intraperitoneal 40 mg/kg, 30 minutes, observed in three mice of n=5, no exploration): strong sedative effect
ratio of open arm entries [3, 10]: significantly increased
ratio of time spent in the open arm [3, 10]: significantly increased

CN1C(=O)CN=C(c2ccccc2)c2cc(Cl)ccc21 [diazepam, Diazepam]
ratio of open arm entries [3, 11]: increased
ratio of time spent in the open arm [3, 11]: increased

copper diethyldithiocarbamate [Cu(DDC)2]
anxiolytic-like effect [3, 12]: confirmed to have an anxiolytic-like effect
ratio of time spent in the open arm [3, 12]: significantly increased
ratio of open arm entries ([3]; oral 40 mg/kg, sixty minutes after administration, not significantly different (FIG. 7)): clear tendency to increase
